Experimental data published in patent publication US20210186923A1, “THERAPEUTIC FORMULATIONS AND USES THEREOF” (PIEDMONT ANIMAL HEALTH INC., priority 2017, published 2021).

How the values were obtained:
[1] = system: dogs with naturally occurring coxofemoral joint disease; conditions: dog, in vivo, po, 3 mg/kg
Description: (§1) Efficacy was determined by rear limb using a quantified kinetic gait analysis.

[2] = system: dogs with naturally occurring coxofemoral joint disease; experiment: PAH-100 oral tablet efficacy (PAH16-013), kinetic gait analysis; conditions: for abnormal clinical observations or adverse events: nine hound dogs, each received all treatments, PAH-100 single oral 3 mg/kg, carprofen 4.4 mg/kg PO q24 hr, 7 doses
Description: as §1

Structure (SMILES)	tolerability [1]	limb use by kinetic gait analysis, compared to no treatment and daily carprofen ([2]; dogs with coxofemoral joint osteoarthritis, single oral 3 mg/kg, over 7 days, majority of kinetic outcomes)	abnormal clinical observations or adverse events [2]
O=C(O)C1=Cc2cc(OC(F)(F)F)ccc2OC1C(F)(F)F (racemic) [PAH-100, (±)-6-(trifluoromethoxy)-2-(trifluoromethyl)-2H-chromene-3-carboxylic acid]	well tolerated	improved limb use	No abnormal clinical observations or adverse events
CC(C(=O)O)c1ccc2c(c1)[nH]c1ccc(Cl)cc12 (stereo not shown) [carprofen, reference compound]			No abnormal clinical observations or adverse events
